Measured values published in patent US20110217355A1, “CONTACT LENS BASED BIOACTIVE AGENT DELIVERY SYSTEM” (priority 2007, published 2011).
Where two headings read alike, the source gives them in different places.

Assays:
[1] = Surfactant release experiments from hydrogels in DI water (surface tension); format: physicochemical; conditions: for Slope (surfactant release vs rescaled time): p-HEMA gels, slope = √(2DSC*×100); for DSC*: surfactant diffusivity times critical aggregation concentration in p-HEMA gel, from fitting surfactant release data
Protocol: The rates of surfactant release were measured in 3.5 ml of DI water with water replacement after each measurement to maintain perfect sink conditions. The surfactant concentration in the release medium was determined by measuring surface tension (σ), which was then related to the concentration through a σ(C) calibration curve. The surface tension was measured by using a Wilhelmy plate (sand blasted platinum plate) attached to a Scaime France Microbalance which was further connected to a Stathan Universal transducer (SC001).
The rate of surfactant release from surfactant-laden contact lenses needs to be measured because an excessive release could lead to toxicity. Additionally, the rate of surfactant release impacts drug release. As described in the previous section, the surfactant concentration in the release medium was determined by measuring the surface tension of the solution, which is related to the bulk concentration (Data not shown).
where DS is the surfactant diffusivity, C* is the critical aggregation concentration (CAC), i.e., the concentration beyond which the surfactant aggregates inside the gel, t is time, Cp is the concentration of the surfactant present as aggregates inside the hydrogel, and h is the half-thickness of the hydrogel. The above equation is valid for diffusion of any solute that is loaded in the gel above saturation limit and so a fraction of the solute precipitates into aggregates. This equation is the equivalent of the Higuchi equation that is commonly utilized to model drug release from gels [Higuchi T. Rate of release of medicaments from ointment bases containing drugs in suspension. Journal of Pharmaceutical Sciences 1961; 50(10):874-875].
To validate the model and to understand the mechanism of surfactant transport, surfactant release studies were conducted from gels of different surfactant loadings (approximately 2%, 4% and 8% w/w in drug gel) and different gel thicknesses (˜100 and 200 μm in dry state). FIG. 8a-c show the surfactant release from 100 μm thick and 200 μm thick gels with three different surfactant concentration explored for 200 μm thick gels. The data is re-plotted in FIG. 9a-c with time axis rescaled to
The fact that association of Brij 700 with the gel matrix is strongly dependant on the gel thickness may be due to large number of ethylene oxide (EO) units in the surfactant.
The slope indicated in FIG. 9(a-c) represents the value of √{square root over (2DSC*×100)}.
As mentioned above, the critical aggregation concentration for Brij 700 in p-HEMA gels is more than 1%, and so the release data from gels loaded with 1% (w/w) can be fitted to the following equation to obtain the surfactant diffusivity [Ritger P L, Peppas N A. A simple equation for description of solute release 1. Fickian and non-Fickian release from mom-swellable devices in the form of slabs, spheres, cylinders and discs. Journal of Controlled Release 1987; 5:23-36].
Here DS is the diffusivity of the surfactant and h is the half-thickness of the gel. The diffusivity of Brij 700 from these hydrogels was determined to be 7.85×10^−17 m^2/s and subsequently the value of C* was evaluated from the already determined parameter ‘DsC*’ (Table 4) to be 2.4±1.1 mM, which is equivalent to 1.12±0.51% surfactant in a dry gel. This value is in reasonable agreement with the hypothesis C* for Brij 700 is approximately 2%, which was based on the overlapping percentage release data for 1% and 2% Brij 700 loaded gels.

[2] = Physical properties of the surfactants obtained from literature; format: physicochemical; conditions: carbons in hydrophobic tail / total carbons
Protocol: Table 3 lists the surfactants utilized in this study and their relevant physical properties obtained from literature. The value of ‘fh’ is also listed, this is defined as the fraction of hydrophobic chain length of the surfactant and is calculated by taking the ratio of number of carbons in the hydrophobic tail of the surfactant to the total number of carbons present in the surfactant.

cornea = conditions: exposure to 0.05% solution for about 5 hours; cited from earlier work
[3] = calculated earlier (Kapoor and Chauhan 2008), reported for comparison; cited from earlier work

| Substance | C* as surfactant in a dry gel ([1]; equivalent of the mM value) | C* (critical aggregation concentration) ([1]; in p-HEMA gel, evaluated from DsC* and DS) | diffusivity of the surfactant from hydrogels (DS) ([1]; p-HEMA gels loaded with 1% (w/w) surfactant) | Slope (surfactant release vs rescaled time) [1] | DSC* [1] | fh (fraction of hydrophobic chain length of the surfactant) [2] | average release of surfactant ([1]; 100 micron thick gel with 8% loading) | amount of surfactant released ([1]; 100 micron thick gel with 8% loading, 10 days) | surfactant released from gel ([1]; 100 micron thick gel with 8% loading, period of 10 days) | surfactant released into the post lens tear film ([1]; at the most half of the average release, lens on an eye) | corneal hydration (cornea) | DSC* [3] | Slope (surfactant release vs rescaled time) [3] |
| --- | --- | --- | --- | --- | --- | --- | --- | --- | --- | --- | --- | --- | --- |
| POE (100) stearyl ether [Brij 700] | 1.12±0.51% | 2.4 ± 1.1 mM | 7.85×10^−17 m^2/s | 0.0613 ± 0.013 | 0.19 (μm)^2M/s × 10^6 | 0.08 | – | – | – | – | – | – | – |
| POE (10) oleyl ether [Brij 97] | – | – | – | 0.4802 ± 0.010 | 11.52 (μm)^2M/s × 10^6 | 0.47 | – | – | – | – | – | – | – |
| POE (20) stearyl ether [Brij 78] | – | – | – | 0.1846 ± 0.050 | 1.70 (μm)^2M/s × 10^6 | 0.31 | about 30 μg/day | around 300 μg | about 10% | ≤ 15 µg/day | does not lead to any significant increase in corneal hydration | – | – |
| POE (20) oleyl ether [Brij 98] | – | – | – | – | – | 0.31 | – | – | – | – | – | 60.80 (μm)^2M/s × 10^6 | 1.1000 ± 0.013 |
